Source: ChEMBL document CHEMBL2046308, “Thiol-reactive compounds from garlic inhibit the epithelial sodium channel (ENaC)” (Bioorg Med Chem, 2012)
Calls of active or inactive are those of the source. The calls are words filed in the database; no cut-off is given here.

Molecular target: T1, Amiloride-sensitive sodium channel, ENaC (Homo sapiens) (UniProt P37088+P51168+P51170)
Experiment: Inhibition of human ENaC alpha-beta-gamma expressed in Xenopus laevis oocytes assessed as effect on transmembrane currents at 100 uM by two-electrode voltage-clamp technique
Assay type: cell-based
Conditions: Oocyte

Compound | inhibition [%]
C=CCS[S+]([O-])CC=C (stereo unspecified) | 77

Molecular target: T1, Amiloride-sensitive sodium channel, ENaC (Homo sapiens)
Experiment: Inhibition of human ENaC alpha-beta-gamma expressed in Xenopus laevis oocytes assessed as effect on transmembrane currents at 1 mM by two-electrode voltage-clamp technique
Assay type: cell-based
Conditions: Oocyte

Compound | inhibition
C=CCSCC=C | inactive
C=CCSSSCC=C | inactive
C=CCSSCC=C | inactive
C=CC[S@+]([O-])C[C@H](N)C(=O)O | inactive
C=CCSC[C@H](N)C(=O)O | inactive
